Data as given in ChEMBL document CHEMBL4673353, “Switching a Xanthine Oxidase Inhibitor to a Dual-Target Antagonist of P2Y and P2Y as an Oral Antiplatelet Agent with a Wider Therapeutic Window in Rats than Ticagrelor” (J Med Chem, 2020).
Each block holds one compound with its values, some of them ahead of it. The source made the active and inactive calls. The calls are words filed in the database; no cut-off is given here.

Legend:
[1] = Toxicity in Sprague-Dawley rat model of tail snip bleeding assessed as increase in bleeding weight at 10 mg/kg, po administered via gavage as single dose measured within 2 hrs post tail snip relative to control; type: organism-based; conditions: in vivo
[2] = Toxicity in Sprague-Dawley rat model of tail snip bleeding assessed as bleeding weight at 10 mg/kg, po administered via gavage as single dose measured within 2 hrs post tail snip(reference value: 0.08 g); type: organism-based; conditions: in vivo
[3] = tested on: Rattus norvegicus; test: Antithrombotic activity in FeCl3-induced Sprague-Dawley rat model of arterial thrombosis assessed as reduction in thrombus weight at 10 mg/kg, po qd administered as single dose for 7 days and measured 2 hrs post last dose; type: functional; set-up: scale not given: the % may be the effect or the level left; conditions: time 7 day
[4] = Metabolic stability of compound in rat liver microsomes assessed as intrinsic clearance per mg protein at 0.2 uM in presence of NADPH measured up to 90 mins by LC-MS/MS analysis; type: ADME, Microsome; conditions: 1.5 h
[5] = Toxicity in Sprague-Dawley rat model of tail-snip bleeding assessed as bleeding time at 10 mg/kg, po administered via gavage as single dose measured within 2 hrs post tail snip (reference value: 17.69 min); type: organism-based; conditions: in vivo
[6] = Drug metabolism in rat liver microsomes assessed as 1-[(4-Cyanobenzyl)oxy]-2-(3-cyanophenyl)-4-methyl-1H-imidazole-5-carboxylic acid formation at 0.2 uM in presence of NADPH measured up to 90 mins by LC-MS/MS analysis; type: ADME, Microsome; conditions: 1.5 h
[7] = Oral bioavailability in male Sprague-Dawley rat at 10 mg/kg administered as single dose by LC-MS analysis; type: ADME, organism-based; conditions: in vivo
[8] = Drug metabolism in human liver microsome assessed as 1-[(4-Cyanobenzyl)oxy]-2-(3-cyanophenyl)-4-methyl-1H-imidazole-5-carboxylic acid formation at 0.2 uM in presence of NADPH measured up to 90 mins by LC-MS/MS analysis; type: ADME; conditions: microsomes, 1.5 h
[9] = Toxicity in Sprague-Dawley rat model of tail-snip bleeding assessed as increase in bleeding time at 10 mg/kg, po administered via gavage as single dose measured within 2 hrs post tail snip relative to control; type: organism-based; conditions: in vivo
[10] = tested on: Rattus norvegicus; test: Antithrombotic activity in FeCl3-induced Sprague-Dawley rat model of arterial thrombosis assessed as reduction in thrombus weight at 5 mg/kg, po qd administered as single dose for 7 days and measured 2 hrs post last dose; type: functional; set-up: scale not given: the % may be the effect or the level left; conditions: time 7 day
[11] = Stability of compound in rat plasma assessed as compound degradation at 10 uM incubated up to 45 mins by HPLC analysis; type: ADME, cell-free; conditions: 0.75 h
[12] = molecular target: Cytochrome P450 2D6 (Homo sapiens, UniProt P10635); test: Inhibition of CYP2D6 in human liver microsomes using dextromethorphan as substrate preincubated for 5 mins followed by NADPH generating system addition and measured after 120 mins by LC-MS/MS; type: ADME
[13] = molecular target: T1, P2Y purinoceptor 12 (Homo sapiens, UniProt Q9H244); test: Agonist activity at P2Y12 in human whole blood assessed as decrease in PGE1-induced VASP phosphorylation at 100 to 200 uM measured after 10 mins by immunostaining based flow cytometric analysis; type: tissue-based; conditions: dose 100-200 µM
[14] = AUC (0 to infinity) in male Sprague-Dawley rat at 10 mg/kg, iv administered as single dose by LC-MS analysis; type: ADME, organism-based; set-up: time infinity, route intravenous, dose 10 mg/kg; conditions: in vivo
[15] = Antagonist activity at P2Y1 in rabbit platelet-rich plasma assessed as inhibition of ADP-induced increase in intracellular Ca2+ concentration preincubated for 5 mins followed by ADP addition and measured for 3 mins by fluo4 dye-based fluorescence assay; type: cell-free; conditions: Oryctolagus cuniculus
[16] = Stability of compound in rabbit plasma assessed as compound degradation at 10 uM incubated up to 45 mins by HPLC analysis; type: ADME, cell-free, Oryctolagus cuniculus; conditions: 0.75 h
[17] = molecular target: Xanthine dehydrogenase/oxidase (Bos taurus, UniProt P80457); test: Inhibition of bovine xanthine oxidase assessed as reduction in uric acid formation at 10 uM using xanthine as substrate preincubated for 15 mins followed by substrate addition measured at 30 sec interval for upto 2 mins by spectrophotometric analysis relative to control; conditions: cattle, time 17 min
[18] = molecular target: T2, Cytochrome P450 2A6 (Homo sapiens, UniProt P11509); test: Inhibition of CYP2A6 in human liver microsomes using coumarin as substrate preincubated for 5 mins followed by NADPH generating system addition and measured after 120 mins by LC-MS/MS; type: ADME
T2 sequence (P11509 whole entry): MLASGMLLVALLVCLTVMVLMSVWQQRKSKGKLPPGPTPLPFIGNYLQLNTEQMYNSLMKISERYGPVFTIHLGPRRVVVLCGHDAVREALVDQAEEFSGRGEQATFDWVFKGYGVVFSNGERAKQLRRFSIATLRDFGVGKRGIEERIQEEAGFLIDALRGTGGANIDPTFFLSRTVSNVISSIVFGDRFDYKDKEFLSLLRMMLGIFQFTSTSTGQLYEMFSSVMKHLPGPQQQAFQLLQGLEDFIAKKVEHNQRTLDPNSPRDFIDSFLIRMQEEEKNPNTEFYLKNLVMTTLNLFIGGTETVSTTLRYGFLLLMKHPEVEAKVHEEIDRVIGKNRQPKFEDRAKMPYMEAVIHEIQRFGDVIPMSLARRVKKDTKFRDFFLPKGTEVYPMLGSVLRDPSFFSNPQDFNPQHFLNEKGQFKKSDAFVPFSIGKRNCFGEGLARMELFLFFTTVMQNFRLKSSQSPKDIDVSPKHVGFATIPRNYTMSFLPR

[19] = molecular target: Cytochrome P450 2E1 (Homo sapiens, UniProt P05181); test: Inhibition of CYP2E1 in human liver microsomes using chlorzoxazone as substrate preincubated for 5 mins followed by NADPH generating system addition and measured after 120 mins by LC-MS/MS; type: ADME
[20] = Tmax in male Sprague-Dawley rat at 10 mg/kg, iv administered as single dose by LC-MS analysis; type: ADME, organism-based; conditions: in vivo
[21] = molecular target: Cytochrome P450 3A4 (Homo sapiens, UniProt P08684); test: Inhibition of CYP3A4 in human liver microsomes using testosterone as substrate preincubated for 5 mins followed by NADPH generating system addition and measured after 120 mins by LC-MS/MS; type: ADME
[22] = molecular target: T1, P2Y purinoceptor 12; test: Antagonist activity at P2Y12 in human whole blood assessed as suppression of ADP-induced decrease in PGE1-induced VASP phosphorylation measured after 10 mins by immunostaining based flow cytometric analysis; type: tissue-based
[23] = Clearance in male Sprague-Dawley rat at 10 mg/kg, iv administered as single dose by LC-MS analysis; type: ADME, organism-based; conditions: in vivo

T1 sequence (Q9H244 whole entry): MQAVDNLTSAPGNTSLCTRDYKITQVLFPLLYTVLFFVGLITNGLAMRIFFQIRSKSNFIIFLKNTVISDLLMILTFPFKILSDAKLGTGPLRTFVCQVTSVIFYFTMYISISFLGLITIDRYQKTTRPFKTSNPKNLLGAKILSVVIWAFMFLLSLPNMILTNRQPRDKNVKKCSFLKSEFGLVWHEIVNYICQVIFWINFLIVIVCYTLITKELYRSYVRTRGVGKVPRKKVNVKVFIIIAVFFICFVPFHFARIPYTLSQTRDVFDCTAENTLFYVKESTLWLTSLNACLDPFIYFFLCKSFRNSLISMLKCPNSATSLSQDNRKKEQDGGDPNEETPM
Xanthine dehydrogenase/oxidase, sequence (P80457 whole entry): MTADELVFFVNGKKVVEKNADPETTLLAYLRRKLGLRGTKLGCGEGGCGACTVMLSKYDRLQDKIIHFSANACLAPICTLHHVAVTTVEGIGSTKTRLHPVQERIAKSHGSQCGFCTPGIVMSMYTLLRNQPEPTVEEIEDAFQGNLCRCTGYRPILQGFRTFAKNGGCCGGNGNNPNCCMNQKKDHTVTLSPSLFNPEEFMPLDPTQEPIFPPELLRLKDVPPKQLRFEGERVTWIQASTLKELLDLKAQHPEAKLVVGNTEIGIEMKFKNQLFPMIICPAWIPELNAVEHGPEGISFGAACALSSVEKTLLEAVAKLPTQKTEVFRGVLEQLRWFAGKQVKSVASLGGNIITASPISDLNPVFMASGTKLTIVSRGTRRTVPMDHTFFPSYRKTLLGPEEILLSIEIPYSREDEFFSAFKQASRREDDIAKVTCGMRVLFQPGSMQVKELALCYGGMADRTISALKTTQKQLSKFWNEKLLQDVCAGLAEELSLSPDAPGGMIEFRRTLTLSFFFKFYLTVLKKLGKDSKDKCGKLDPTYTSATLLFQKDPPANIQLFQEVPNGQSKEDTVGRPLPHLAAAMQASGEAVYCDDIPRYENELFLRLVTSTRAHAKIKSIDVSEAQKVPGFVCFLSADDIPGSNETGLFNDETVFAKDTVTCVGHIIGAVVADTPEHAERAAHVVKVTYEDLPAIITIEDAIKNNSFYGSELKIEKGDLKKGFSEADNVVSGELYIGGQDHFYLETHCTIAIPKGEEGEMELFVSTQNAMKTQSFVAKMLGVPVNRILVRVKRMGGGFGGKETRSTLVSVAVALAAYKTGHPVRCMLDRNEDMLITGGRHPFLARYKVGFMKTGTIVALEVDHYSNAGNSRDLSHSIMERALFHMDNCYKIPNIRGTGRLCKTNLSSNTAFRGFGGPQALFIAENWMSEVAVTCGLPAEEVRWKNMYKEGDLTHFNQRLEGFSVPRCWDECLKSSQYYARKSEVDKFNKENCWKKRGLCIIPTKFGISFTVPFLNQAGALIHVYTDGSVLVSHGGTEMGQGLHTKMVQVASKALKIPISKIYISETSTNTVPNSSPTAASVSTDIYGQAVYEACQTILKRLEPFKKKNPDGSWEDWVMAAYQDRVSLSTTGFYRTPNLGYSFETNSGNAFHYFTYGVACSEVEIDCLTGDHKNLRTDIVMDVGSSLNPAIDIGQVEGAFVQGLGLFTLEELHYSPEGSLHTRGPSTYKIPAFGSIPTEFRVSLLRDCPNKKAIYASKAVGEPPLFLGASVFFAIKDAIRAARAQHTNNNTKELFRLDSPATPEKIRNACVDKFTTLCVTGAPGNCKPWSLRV
Cytochrome P450 3A4, sequence (P08684 whole entry): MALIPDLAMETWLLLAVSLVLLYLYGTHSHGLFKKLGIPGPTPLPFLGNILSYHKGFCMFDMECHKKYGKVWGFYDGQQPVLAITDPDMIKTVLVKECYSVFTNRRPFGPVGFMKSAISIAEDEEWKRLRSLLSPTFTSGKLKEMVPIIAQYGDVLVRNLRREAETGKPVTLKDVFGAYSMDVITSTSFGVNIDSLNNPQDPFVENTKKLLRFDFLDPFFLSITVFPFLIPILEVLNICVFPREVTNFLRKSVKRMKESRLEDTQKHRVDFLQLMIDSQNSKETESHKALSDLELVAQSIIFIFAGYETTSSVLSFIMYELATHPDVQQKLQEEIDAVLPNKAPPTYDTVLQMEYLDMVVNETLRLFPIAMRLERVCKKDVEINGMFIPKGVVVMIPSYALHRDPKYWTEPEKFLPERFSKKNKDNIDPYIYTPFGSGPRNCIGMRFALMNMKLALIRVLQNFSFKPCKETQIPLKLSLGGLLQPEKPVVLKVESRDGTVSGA
Cytochrome P450 2D6, sequence (P10635 whole entry): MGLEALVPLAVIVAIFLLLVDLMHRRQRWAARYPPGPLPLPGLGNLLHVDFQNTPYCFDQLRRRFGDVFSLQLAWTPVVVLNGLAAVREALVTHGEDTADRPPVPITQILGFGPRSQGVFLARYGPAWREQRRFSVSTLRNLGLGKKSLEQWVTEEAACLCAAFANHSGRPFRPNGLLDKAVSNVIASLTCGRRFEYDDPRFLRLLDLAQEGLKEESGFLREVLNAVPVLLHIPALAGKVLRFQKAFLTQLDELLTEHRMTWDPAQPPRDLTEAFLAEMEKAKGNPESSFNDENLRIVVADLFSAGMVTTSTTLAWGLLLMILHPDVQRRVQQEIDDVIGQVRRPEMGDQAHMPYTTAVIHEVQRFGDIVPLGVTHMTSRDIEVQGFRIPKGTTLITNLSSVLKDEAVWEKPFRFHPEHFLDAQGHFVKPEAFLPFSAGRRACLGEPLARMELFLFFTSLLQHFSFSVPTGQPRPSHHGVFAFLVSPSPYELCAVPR
Cytochrome P450 2E1, sequence (P05181 whole entry): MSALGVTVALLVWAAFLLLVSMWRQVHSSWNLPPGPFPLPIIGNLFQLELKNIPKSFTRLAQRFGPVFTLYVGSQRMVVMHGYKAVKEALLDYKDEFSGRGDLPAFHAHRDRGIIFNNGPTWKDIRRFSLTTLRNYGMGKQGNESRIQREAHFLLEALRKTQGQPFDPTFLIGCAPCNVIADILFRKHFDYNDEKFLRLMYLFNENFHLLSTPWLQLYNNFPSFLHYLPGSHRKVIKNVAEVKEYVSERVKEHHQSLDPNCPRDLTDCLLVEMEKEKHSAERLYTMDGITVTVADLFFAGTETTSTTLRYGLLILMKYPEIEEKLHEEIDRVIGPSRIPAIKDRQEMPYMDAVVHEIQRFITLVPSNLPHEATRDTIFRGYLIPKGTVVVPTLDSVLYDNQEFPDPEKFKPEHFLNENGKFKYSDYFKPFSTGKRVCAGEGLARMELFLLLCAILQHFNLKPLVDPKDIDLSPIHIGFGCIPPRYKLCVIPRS

Compound: CCOC(=O)c1c(C)nc(-c2cccc(C#N)c2)n1OCc1ccc(C#N)cc1
- fold change (FC) [1]: 5
- Activity [2]: 0.4 g
- Activity [3]: 40.7%
- CLH [4]: 0.06 mL/min
- Time [5]: 33.94 min
- Drug metabolism [6]: Metabolite_Detected
- bioavailability [7]: 32.4%
- Drug metabolism [8]: Metabolite_Detected
- fold change (FC) [9]: 1.92
- Activity [10]: 22.6%

- Stabilty [11]: Stable
- IC50 [12]: > 10 µM
- Activity [13]: inactive
- AUC(0-inf) [14]: 3.5 µg·h/mL
- IC50 [15]: 2.59 µM
- Stabilty [16]: Stable
- inhibition at 10 µM [17]: < 50%
- IC50 [18]: > 10 µM
- IC50 [19]: > 10 µM
- Tmax [20]: 8.4 min
- IC50 [21]: > 10 µM
- IC50 [22]: 149 µM
- clearance [23]: 3.03 L/h/kg
Compound: Cc1nc(-c2cccc(C#N)c2)n(OCc2ccc(C#N)cc2)c1C(=O)O
